Laboratory results taken from ChEMBL document CHEMBL1821570, “Inhibition of the helicase activity of the HCV NS3 protein by symmetrical dimeric bis-benzimidazoles” (Bioorg Med Chem Lett, 2011).
The source made the active and inactive calls. The rule behind the calls is not given here.

Assays:
[1] = test system: Hepacivirus hominis; test: Inhibition of recombinant hepatitis C virus NS3 helicase domain NTPase activity by TLC
[2] = test system: Hepacivirus hominis; test: Inhibition of recombinant hepatitis C virus NS3 helicase domain using DNA duplex S(DB11) labelled with [gamma-32P]ATP as substrate up to 400 after 30 mins
[3] = test system: Hepacivirus hominis; test: Inhibition of recombinant hepatitis C virus NS3 helicase domain using DNA duplex S(DB2)b labelled with [gamma-32P]ATP as substrate up to 400 after 30 mins
[4] = test system: Hepacivirus hominis; test: Inhibition of recombinant hepatitis C virus NS3 helicase domain using DNA duplex S(DB2)a labelled with [gamma-32P]ATP as substrate up to 400 after 30 mins
[5] = test system: Hepacivirus hominis; test: Inhibition of recombinant hepatitis C virus NS3 helicase domain using DNA duplex SM1 labelled with [gamma-32P]ATP as substrate up to 400 after 30 mins
[6] = test system: Hepacivirus hominis; test: Inhibition of recombinant hepatitis C virus NS3 helicase domain using DNA duplex S1 labelled with [gamma-32P]ATP as substrate up to 400 after 30 mins
[7] = Inhibition of recombinant hepatitis C virus NS3 helicase domain using DNA duplex S(DB11) labelled with [gamma-32P]ATP as substrate after 30 mins; design: species or system Hepacivirus hominis
[8] = Inhibition of recombinant hepatitis C virus NS3 helicase domain using DNA duplex S(DB2)b labelled with [gamma-32P]ATP as substrate after 30 mins; design: species or system Hepacivirus hominis
[9] = Inhibition of recombinant hepatitis C virus NS3 helicase domain using DNA duplex S(DB2)a labelled with [gamma-32P]ATP as substrate after 30 mins; design: species or system Hepacivirus hominis
[10] = Inhibition of recombinant hepatitis C virus NS3 helicase domain using DNA duplex SM1 labelled with [gamma-32P]ATP as substrate after 30 mins; design: species or system Hepacivirus hominis
[11] = Inhibition of recombinant hepatitis C virus NS3 helicase domain using DNA duplex S1 labelled with [gamma-32P]ATP as substrate after 30 mins; design: species or system Hepacivirus hominis
[12] = test system: Hepacivirus hominis; test: Inhibition of recombinant hepatitis C virus NS3 helicase domain NTPase activity at 400 uM by TLC in presence of poly(U)
[13] = Inhibition of recombinant hepatitis C virus NS3 helicase domain NTPase activity by TLC in presence of poly(U); design: species or system Hepacivirus hominis
[14] = test system: Hepacivirus hominis; test: Enhancement of binding efficacy between compound-treated recombinant hepatitis C virus NS3 helicase and 32P-labelled SM1 DNA duplex after 10 mins
[15] = test system: Hepacivirus hominis; test: Inhibition of recombinant hepatitis C virus NS3 helicase domain assessed as the enzyme concentration at which a half of compound molecules are bound by PTI spectrofluorimetry
[16] = test system: Hepacivirus hominis; test: Inhibition of recombinant hepatitis C virus NS3 helicase domain by PTI spectrofluorimetry
[17] = Inhibition of recombinant hepatitis C virus NS3 helicase domain using RNA duplex rSM2 labelled with [gamma-32P]ATP as substrate after 30 mins; design: species or system Hepacivirus hominis
[18] = Inhibition of recombinant hepatitis C virus NS3 helicase domain using DNA duplex SM2 labelled with [gamma-32P]ATP as substrate after 30 mins; design: species or system Hepacivirus hominis

SMILES | inhibition [1] | IC50 [7] | IC50 [8] | IC50 [9] | IC50 [10] | IC50 [11] | inhibition [12] | IC50 [13] | Activity [14] | Activity [15] | inhibition [16] | IC50 [17] | IC50 [18] | inhibition [2] | inhibition [3] | inhibition [4] | inhibition [5] | inhibition [6]
CN1CCN(c2ccc3[nH]c(-c4ccc5[nH]c(-c6ccc(O)cc6)nc5c4)nc3c2)CC1 | inactive |  |  |  |  |  |  |  |  |  |  |  |  | inactive | inactive | inactive | inactive | inactive
CN1CCN(c2ccc3nc(-c4ccc5nc(CNC(=O)CCCCC(=O)NCc6nc7ccc(-c8nc9ccc(N%10CCN(C)CC%10)cc9[nH]8)cc7[nH]6)[nH]c5c4)[nH]c3c2)CC1 | inactive | 170 µM | 240 µM | 150 µM | 230 µM |  |  |  |  |  |  |  |  |  |  |  |  | 
CN1CCN(c2ccc3nc(-c4ccc5nc(CNC(=O)CCCCCCCC(=O)NCc6nc7ccc(-c8nc9ccc(N%10CCN(C)CC%10)cc9[nH]8)cc7[nH]6)[nH]c5c4)[nH]c3c2)CC1 | inactive | 140 µM | 140 µM | 150 µM | 210 µM | > 100 µM |  |  |  |  |  |  |  |  |  |  |  | 
CN1CCN(c2ccc3nc(-c4ccc5nc(CNC(=O)CCCCCC(=O)NCc6nc7ccc(-c8nc9ccc(N%10CCN(C)CC%10)cc9[nH]8)cc7[nH]6)[nH]c5c4)[nH]c3c2)CC1 | inactive | 160 µM | 200 µM | 150 µM | 225 µM | > 100 µM |  |  |  |  |  |  |  |  |  |  |  | 
CN1CCN(c2ccc3nc(-c4ccc5nc(CNC(=O)CCCCCCCCCCCC(=O)NCc6nc7ccc(-c8nc9ccc(N%10CCN(C)CC%10)cc9[nH]8)cc7[nH]6)[nH]c5c4)[nH]c3c2)CC1 | inactive | 8 µM | 12 µM | 7 µM | 7 µM | 10 µM | inactive | 20 µM | Active | 7.3 µM | Active | 1.4 µM | 9 µM |  |  |  |  | 
CN(CCCOc1ccc(-c2nc3ccc(-c4nc5ccc(N6CCN(C)CC6)cc5[nH]4)cc3[nH]2)cc1)CCCOc1ccc(-c2nc3ccc(-c4nc5ccc(N6CCN(C)CC6)cc5[nH]4)cc3[nH]2)cc1 | inactive | 15 µM | 10 µM | 12 µM | 18 µM | 5 µM |  |  |  |  |  |  |  |  |  |  |  | 

Now from value to compound, other results behind:

inhibition [1] | IC50 [7] | IC50 [8] | IC50 [9] | IC50 [10] | IC50 [11] | inhibition [12] | IC50 [13] | Activity [14] | Activity [15] | inhibition [16] | IC50 [17] | IC50 [18] | SMILES | inhibition [2] | inhibition [3] | inhibition [4] | inhibition [5] | inhibition [6]
inactive |  |  |  |  |  |  |  |  |  |  |  |  | CC(=O)NCc1nc2ccc(-c3nc4ccc(N5CCN(C)CC5)cc4[nH]3)cc2[nH]1 | inactive | inactive | inactive | inactive | inactive
inactive | 240 µM | 260 µM | 250 µM | 230 µM | > 100 µM | inactive | 280 µM | inactive | 51 µM | inactive | 38 µM | 240 µM | CN1CCN(c2ccc3nc(-c4ccc5nc(CNC(=O)CCC(=O)NCc6nc7ccc(-c8nc9ccc(N%10CCN(C)CC%10)cc9[nH]8)cc7[nH]6)[nH]c5c4)[nH]c3c2)CC1 |  |  |  |  | 
inactive | 230 µM | 250 µM | 220 µM | 235 µM | > 100 µM |  |  |  |  |  |  |  | CN1CCN(c2ccc3nc(-c4ccc5nc(CNC(=O)CCCC(=O)NCc6nc7ccc(-c8nc9ccc(N%10CCN(C)CC%10)cc9[nH]8)cc7[nH]6)[nH]c5c4)[nH]c3c2)CC1 |  |  |  |  | 
